Results on one molecule are retold here after paper PMC12666239 (Chembiochem, 2025).

Each structure is given as a SMILES string. Where “and” joins values, the source holds several entries; their conditions need not be identical. Identical values can stand only once.

This test deals with Nsp3b^F360N/D361S (Severe acute respiratory syndrome coronavirus 2, UniProt P0DTD1, D1179S/F1178N). Type of test: binding, SARS-CoV-2.

Consider `N#C[C@@]1(c2ccc3c(N)ncnn23)O[C@H](COS(N)(=O)=O)[C@@H](O)[C@H]1O` [compound 3], for which the TΔS entry is on record as “≈ 0.10 kcal mol^−1”; the ΔG is given as −7.73 kcal mol^–1; the ΔH is −7.83 ± 0.15 and −7.83 ± 0.15 kcal mol^–1; the “−TΔS” value came to 0.104 kcal mol^–1.
